The structures appear in SMILES notation.

The text below walks through data of US9302999B2, “Substituted triazoles as herbicides” (E. I. DU PONT DE NEMOURS AND COMPANY, priority 2012, dated 2016).

Experiment [1] concerns pigweed (Amaranthus retroflexus). In words: Test D pre-/postemergence: pigweed. It counts as in vivo. Put shortly: (§1)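 Applied as a non-phytotoxic solvent formulation with surfactant, compounds were tested preemergence in silt loam and postemergence on seedlings 2 to 18 cm high in peat-vermiculite medium. Evaluation was visual, 0 meaning no effect and 100 complete control, at 14 to 21 days.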

The subject of experiment [2] is Russian thistle (Salsola iberica). Briefly: Test D pre-/postemergence: Russian thistle. It counts as in vivo. The conditions noted are these: Postemergence. Put shortly: as §1
The next experiment has as its system Waterhemp. In words: Test C preemergence: waterhemp. It counts as in vivo, Amaranthus rudis. To be noted: 125 g ai/ha, scale 0 to 100, 0 no effect, 100 complete control.
The next experiment has as its system corn (Zea mays). In words: Test F pre-/postemergence: corn. The experiment is classed as in vivo. To be noted: Preemergence. Put shortly: (§2)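 0–100 visual control scores, taken 14–21 d after application in the greenhouse. Preemergence treatment was made to silt loam soil at sowing. Postemergence sprays hit 1- to 4-leaf plants (2–18 cm) in peat/vermiculite mix. Surfactant-containing non-phytotoxic solvent served as the vehicle.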

In experiment [3] the test system is crabgrass, large (large crabgrass, Digitaria sanguinalis). Briefly: Test F pre-/postemergence: crabgrass, large. The experiment is classed as in vivo. The conditions noted are these: Preemergence. In short, it runs like this:
as §2

Experiment [4] concerns foxtail, giant (giant foxtail, Setaria faberii). In words: Test F pre-/postemergence: foxtail, giant. It counts as in vivo. The conditions noted are these: Preemergence. Put shortly: as §2
Experiment [5] relates to goosegrass (Eleusine indica). In words: Test F pre-/postemergence: goosegrass. The experiment is classed as in vivo. To be noted: Preemergence. In short, it runs like this:
as §2

In experiment [6] the test system is barnyardgrass (Echinochloa crus-galli). In words: Test F pre-/postemergence: barnyardgrass. The conditions noted are these: Preemergence. It counts as in vivo. In short, it runs like this:
as §2

A further experiment has as its system kochia (Kochia scoparia). Briefly: Test F pre-/postemergence: kochia. It counts as in vivo. To be noted: Preemergence. In short, it runs like this: as §2
For another experiment, the system named is Oilseed Rape. In words: Test C preemergence: oilseed rape. It counts as in vivo. To be noted: 31 g ai/ha, scale 0 (no effect) to 100 (complete control).
Where [7] appears, read: 16 g ai/ha, scale 0 to 100, 0 no effect, 100 complete control.
Where [8] appears, read: 31 g ai/ha, scale 0 to 100, 0 no effect, 100 complete control.

As to `Cc1nn(-c2ccc(F)c(C(F)(F)F)c2)nc1Cc1ccnc(C(F)(F)F)c1` [Compound 156], the “Plant response rating: Pigweed” value came out at 90 in experiment [1] (Postemergence, 31 g ai/ha, scale 0 to 100 (0 no effect, 100 complete control)); 90 in experiment [1] (Postemergence, 62 g ai/ha, scale 0 to 100 (0 no effect, 100 complete control)); 95 in experiment [1] (Postemergence, 125 g ai/ha, scale 0 to 100, 0 no effect, 100 complete control). The “Plant response rating, Pigweed” value worked out at 85 in experiment [1] (Postemergence, 16 g ai/ha, scale 0 to 100); 50 in [1] (Preemergence, 16 g ai/ha, scale 0 to 100, 0 no effect, 100 complete control); 85 in experiment [1] (Preemergence, 31 g ai/ha, scale 0 to 100, 0 no effect, 100 complete control); 100 in [1] (Preemergence, 62 g ai/ha, scale 0 to 100); 100 in experiment [1] (Preemergence, 125 g ai/ha, scale 0 to 100). Also, the “Plant response rating: Russian Thistle” value is 85 in [2] (31 g ai/ha, scale 0 to 100 (0 no effect, 100 complete control)); 90 in [2] (62 g ai/ha, scale 0 to 100 (0 no effect, 100 complete control)); 80 in experiment [2] (125 g ai/ha, scale 0 to 100, 0 no effect, 100 complete control). Besides, in [2] (16 g ai/ha, scale 0 to 100), the “Plant response rating, Russian Thistle” value was 60. The “Plant response rating, Waterhemp” value in the experiment with Waterhemp was 100.
In the case of `CCc1nn(-c2ccc(F)c(F)c2)nc1Oc1ccnc(C(F)(F)F)c1` [Compound 171], the “Plant response rating, Corn” value with corn (Zea mays) (setting [7]) was 0; in the experiment with corn (Zea mays) (setting [8]), 0; in the experiment with corn (Zea mays) (62 g ai/ha, scale 0 to 100), 0; with corn (Zea mays) (125 g ai/ha, scale 0 to 100), 0; in the experiment on corn (Zea mays) (250 g ai/ha, scale 0 to 100) it was 5. For the same compound, the “Plant response rating, Crabgrass, Large” value was 75 in [3] (setting [7]); 98 in experiment [3] (setting [8]); 98 in experiment [3] (62 g ai/ha, scale 0 to 100); 100 in [3] (125 g ai/ha, scale 0 to 100); 100 in [3] (250 g ai/ha, scale 0 to 100). Further, the “Plant response rating, Foxtail, Giant” value in experiment [4] (setting [7]) came to 40; in experiment [4] (setting [8]) it was 60; in experiment [4] (62 g ai/ha, scale 0 to 100) it was 100; in [4] (125 g ai/ha, scale 0 to 100), 100; in [4] (250 g ai/ha, scale 0 to 100), 100. Moreover, the “Plant response rating, Goosegrass” value was found to be 70 in [5] (setting [7]); 80 in experiment [5] (setting [8]); 100 in experiment [5] (62 g ai/ha, scale 0 to 100); 100 in experiment [5] (125 g ai/ha, scale 0 to 100); 100 in experiment [5] (250 g ai/ha, scale 0 to 100). Further, the “Plant response rating, Barnyardgrass” value in experiment [6] (setting [7]) is listed as 0; in [6] (setting [8]), 5; in experiment [6] (62 g ai/ha, scale 0 to 100), 5; in [6] (125 g ai/ha, scale 0 to 100), 80; in experiment [6] (250 g ai/ha, scale 0 to 100) it was 100. The “Plant response rating, Kochia” value was 0 with kochia (Kochia scoparia) (setting [7]); 0 in the experiment with kochia (Kochia scoparia) (setting [8]); 5 with kochia (Kochia scoparia) (62 g ai/ha, scale 0 to 100); 15 in the experiment on kochia (Kochia scoparia) (125 g ai/ha, scale 0 to 100); 98 in the experiment on kochia (Kochia scoparia) (250 g ai/ha, scale 0 to 100). The “Plant response rating, Oilseed Rape” value with Oilseed Rape is recorded as 0.
Regarding `CCOCc1nn(-c2ccc(F)cc2)nc1Oc1ccnc(C(F)(F)F)c1` [Compound 163], the “Plant response rating, Waterhemp” value with Waterhemp is given as 100.
